Laboratory results: PMC6502747, “Preclinical toxicology and safety pharmacology of the first-in-class GADD45β/MKK7 inhibitor and clinical candidate, DTP3” (Toxicology Reports, 2019)
Where two headings read alike, the source gives them in different places.

Legend:
[1] = test system: HepG2 cells; test: multi-parametric cytotoxicity assay (HCS); format: cell-based, human
Method: assessment/genetic-toxicology/regulatory-assays.html). Briefly, the numbers of revertant colonies for each of five histidine-requiring strains of Salmonella […]
different classes of genetically active compounds, were evaluated either in the presence or absence of metabolic activation by Aroclor 1254-induced rat liver post-mitochondrial S9 fraction (Supplementary Figure 2B). DTP3 was tested at the […]
expressed as the mean fold increase in colony number for each tester strain upon exposure to DTP3 or strain-specific control compounds (CTR) relative to exposure to vehicle control, either in the presence or absence of metabolic activation (Supplementary Figure 2C). The following significance thresholds were applied to each strain: ≥1.5 folds, strain TA102; ≥2-fold, strains TA98 and TA100; ≥3-fold, […]
(http://www.cyprotex.com/toxicology/multiparametric/cytotoxicity-screening-panel), using High Content Screening (HCS). […]
were treated with a specific dye or antibody, as required by the assay. Plates were then scanned using an ArrayScan VTI automated fluorescence cell imager (Thermo Scientific Cellomics) and analysed for the following measures of toxicity: nuclear size and nuclear morphology, cell membrane permeability, mitochondrial mass, mitochondrial membrane potential (DYm), and cytochrome c release (Figure 2). […]
each compound, cytotoxicity was scored by assessing the minimum effective concentration (MEC) inducing a significant effect relative to vehicle control. […]
and positive controls, respectively. Briefly, upon formation of a stable Gigaohm (GΩ) seal between patch electrodes and individual hERG-expressing HEK-293 cells, hERG-dependent outward tail currents were measured following depolarisation of the cell membrane to […] for 2 s (activation of channels) from a holding potential of - 80 mV, and following subsequent repolarisation to -40 mV, for 3 s. […]
. Electrophysiological measurements were recorded using PatchMaster software (Version v2x73_2). […] The amount of current block was calculated as the percentage of control current. […]

[2] = test system: Sigma receptors (non-selective); test: Sigma receptor functional assay (agonistic/antagonistic effect); format: biochemical
Description: SUPPLEMENTARY FIGURE LEGENDS
Supplementary Figure 1 – Related to Figure 1. […]
Values represent the mean
percentage of variation of the response to the reference Sigma-receptor ligand in the
in the absence of any other agents. […]

[3] = target: CYP2C8 (Homo sapiens, UniProt P10632); settings: read-out: CYP2C8 IC50
CYP2C8, sequence (P10632 whole entry): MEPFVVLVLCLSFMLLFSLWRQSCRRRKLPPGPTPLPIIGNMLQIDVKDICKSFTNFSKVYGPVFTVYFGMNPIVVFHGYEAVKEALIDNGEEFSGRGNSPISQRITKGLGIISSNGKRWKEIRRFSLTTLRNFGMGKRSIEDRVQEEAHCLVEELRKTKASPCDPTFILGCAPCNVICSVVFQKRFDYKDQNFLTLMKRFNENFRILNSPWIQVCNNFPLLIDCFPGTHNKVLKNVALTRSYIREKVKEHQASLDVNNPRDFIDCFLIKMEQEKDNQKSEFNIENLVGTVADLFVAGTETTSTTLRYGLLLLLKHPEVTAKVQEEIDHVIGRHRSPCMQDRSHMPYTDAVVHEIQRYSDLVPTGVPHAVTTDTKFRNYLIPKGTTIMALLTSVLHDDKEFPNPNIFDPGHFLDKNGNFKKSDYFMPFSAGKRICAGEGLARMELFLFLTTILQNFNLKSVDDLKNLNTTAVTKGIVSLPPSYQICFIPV
Description: investigated in vitro, using time-dependent inhibition and catalytic induction assays
conducted at Cyprotex laboratories in accordance with in-house SOP

[4] = rat plasma
Method: Pooled plasma and faeces samples were prepared for metabolite profiling and
identification by sequential extraction with acetonitrile. Pooled urine samples were
centrifuged to remove particulate material. For each sample, metabolite profiles
were generated using radio-HPLC. On-line radio-detection was used for urine and
faeces, whereas off-line radio-detection was used for plasma, due to the low
radioactivity levels present in plasma samples. Selected samples were further
analysed by high resolution LC-MS(/MS) in order to characterise the most notable
Results were expressed as the mean of the indicated number of samples. The
statistical error was calculated as either standard deviation (SD) or standard error of
the mean (SEM), as indicated, according to the typology of the experiments.

For `CN(C)CCCN1c2ccccc2Sc2ccc(Cl)cc21` [Chlorpromazine, chlorpromazine], the “MEC Cell membrane permeability” value [1] was 1.12 µM, the “MEC Cytochrome C release” value ([1]; human, 72 h) was 1.30 µM and the “MEC Mitochondrial membrane potential” value ([1]; human, 72 h) was 4.70 µM.
For `C[C@@H]1CN(CCCn2c3ccccc3c3ccccc32)C[C@H](C)N1` [Rimcazole, rimcazole], the “Antagonistic Effect, Response” value ([2]; [Drug] 1.0E-0.5 M) was -6 % of ligand binding, the “Antagonistic Effect, Response” value ([2]; [Drug] 1.0E-0.6 M) was 84 % of ligand binding and the “Antagonistic Effect, Response” value ([2]; [Drug] 3.0E-0.6 M) was 49 % of ligand binding.
`Cc1ccc(C)c(OCCCC(C)(C)C(=O)O[C@@H]2O[C@H](C(=O)O)[C@@H](O)[C@H](O)[C@H]2O)c1` [gemfibrozilglucuronide] gave an IC50 ([3]; 0 min) of 30.9 µM, an IC50 ([3]; 30 min, + NADPH) of 5.84 µM and an IC50 ([3]; 30 min, - NADPH) of 30.3 µM.
For (+) SKF-10,047, the “Agonistic Effect, Response” value [2] was 48 % of ligand binding and the “Agonistic Effect, Response” value ([2]; [Drug] 1.0E-0.5 M) was 17 % of ligand binding.
For methoxy-DTP3 [P7 (methoxy DTP3)], the “radio-labelled species in plasma profile” value ([4]; 10 m) was 0.8 and the “radio-labelled species in plasma profile” value ([4]; 1 hr) was 0.8.
